Source: patent US7592357B2, “Compounds” (SmithKline Beecham Corporation, priority 2004, dated 2009)

Molecular target: T1, human recombinant ROCK1 kinase domain (amino acid 2-543) (Homo sapiens, UniProt Q13464)
T1 construct: ROCK1 kinase domain (amino acid 2-543); His-tag; made in house; host or cells: Sf9 cells
Test: ROCK Kinase Assay
Type: biochemical
Conditions: 1 nM hROCK1, 1 uM ATP, SPA; results recorded as pIC50; range tested 50 uM to 0.8 nM or 10 uM to 0.8 nM
Method: ROCK inhibitor activity was determined using human recombinant ROCK1 kinase domain (amino acid 2-543) expressed in Sf9 cells (see WO9967283). The enzyme was purified using His-tag NTA column and Source15 HPLC chromatography. The assay of Rock-1 activity involved incubation with peptide substrate and ATP^33, the subsequent incorporation of P^33 into the peptide was quantified by Scintillation Proximity Assay (SPA—Amersham Pharmacia).
For IC50 determination, test compounds were typically dissolved at 10 mM in 100% DMSO, with subsequent serial dilution in 100% DMSO. Compounds were typically assayed over an eleven point dilution range with a concentration in the assay of 50 uM to 0.8 nM, in 3-fold dilutions. IC50) values were calculated by bespoke curve fitting software and then converted to pIC50. In some cases, compounds were assayed over an eleven point dilution range with a concentration in the assay of 10 uM to 0.8 nM, in 3-fold dilutions. […]
Assays were performed in opaque, white walled, 384 well plates, in a total assay volume of 20 ul. […] P^33 incorporation was quantified by scintillation counting in a Packard TopCount. When the reaction was terminated by addition of a 10 ul solution, P33 incorporation was quantified by luminescence detection using a PerkinElmer Viewlux ultraHTS microplate imager.

T1 sequence (Q13464 2-543): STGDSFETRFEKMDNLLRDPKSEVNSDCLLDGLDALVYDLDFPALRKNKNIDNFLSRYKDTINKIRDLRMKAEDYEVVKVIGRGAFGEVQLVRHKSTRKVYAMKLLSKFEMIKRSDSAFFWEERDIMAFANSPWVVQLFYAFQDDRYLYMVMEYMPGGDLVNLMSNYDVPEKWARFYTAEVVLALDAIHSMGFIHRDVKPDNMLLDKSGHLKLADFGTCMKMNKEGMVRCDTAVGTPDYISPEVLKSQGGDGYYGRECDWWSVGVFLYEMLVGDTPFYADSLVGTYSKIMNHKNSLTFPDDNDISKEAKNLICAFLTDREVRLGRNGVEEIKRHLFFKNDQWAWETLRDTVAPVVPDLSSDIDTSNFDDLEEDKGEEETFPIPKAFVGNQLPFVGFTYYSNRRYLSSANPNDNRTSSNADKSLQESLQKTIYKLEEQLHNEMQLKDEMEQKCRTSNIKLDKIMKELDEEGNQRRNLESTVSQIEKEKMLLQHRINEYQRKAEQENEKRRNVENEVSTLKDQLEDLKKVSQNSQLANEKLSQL

activity in the ROCK kinase assay: not active
SMILES: COc1cccc(CN2C(=O)CC(c3ccc(C(F)(F)F)cc3)C(C(=O)Nc3cc4cn[nH]c4cc3F)=C2C)c1 (stereo not shown) [Example 104, N-(6-Fluoro-1H-indazol-5-yl)-2-methyl-1-{[3-(methyloxy)phenyl]methyl}-6-oxo-4-[4-(trifluoromethyl)phenyl]-1,4,5,6-tetrahydro-3-pyridinecarboxamide]
